Test results as given in the supplement of paper PMC11061612.

How the values were obtained:
Experiment in all cases: Bliss excess, mean over the matrix (fraction); higher = more synergy
[1] = test system: ATN-1 (T-Lymphoblastic Leukemia)
Summary of the method: (§1)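 After 24 hours at 37°C and 5% CO2 in 1536-well plates, cells in DMEM/F12 or RPMI plus 10% FBS received two-drug dose matrices for 72 hours. Viability came from CellTiter-Glo 2.0 luminescence and was scaled as inhibition, anchored at 0 by vehicle wells and at 1 by blank wells. Combination Emax is taken as the second-highest inhibition in the matrix, and Bliss excess as the observed combination effect less EA + EB − EA·EB, with EA and EB the single-agent effects.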

[2] = test system: BC-1 (B-Cell Non-Hodgkin's Lymphoma)
Summary of the method: as §1

[3] = test system: BT-474 (Breast Carcinoma)
Summary of the method: as §1

[4] = test system: CAL-85-1 (Breast Carcinoma)
Summary of the method: as §1

DK-MG (Glioblastoma) = test system: DK-MG (Glioblastoma)
Summary of the method: as §1

GCIY (Gastric Carcinoma) = test system: GCIY (Gastric Carcinoma)
Summary of the method: as §1

HT-144 (Melanoma) = test system: HT-144 (Melanoma)
Summary of the method: as §1

[5] = test system: HT-3 (Cervical Carcinoma)
Summary of the method: as §1

[6] = test system: JJN-3 (Plasma Cell Myeloma)
Summary of the method: as §1

[7] = test system: KNS-62 (Squamous Cell Lung Carcinoma)
Summary of the method: as §1

MG-63 (Osteosarcoma) = test system: MG-63 (Osteosarcoma)
Summary of the method: as §1

[8] = test system: NCI-H1435 (Non-Small Cell Lung Carcinoma)
Summary of the method: as §1

[9] = test system: NCI-H2023 (Non-Small Cell Lung Carcinoma)
Summary of the method: as §1

NCI-H2452 (Mesothelioma) = test system: NCI-H2452 (Mesothelioma)
Summary of the method: as §1

[10] = test system: NTERA-2-cl-D1 (Other Solid Carcinomas)
Summary of the method: as §1

[11] = test system: RS4-11 (B-Lymphoblastic Leukemia)
Summary of the method: as §1

[12] = test system: SBC-3 (Small Cell Lung Carcinoma)
Summary of the method: as §1

[13] = test system: SCC90 (Head and Neck Carcinoma)
Summary of the method: as §1

[14] = test system: SUP-HD1 (Hodgkin's Lymphoma)
Summary of the method: as §1

[15] = test system: TOV-21G (Ovarian Carcinoma)
Summary of the method: as §1

SMILES	Bliss excess [1]	Bliss excess [2]	Bliss excess [3]	Bliss excess [4]	Bliss excess (DK-MG (Glioblastoma))	Bliss excess (GCIY (Gastric Carcinoma))	Bliss excess (HT-144 (Melanoma))	Bliss excess [5]	Bliss excess [6]	Bliss excess [7]	Bliss excess (MG-63 (Osteosarcoma))	Bliss excess [8]	Bliss excess [9]	Bliss excess (NCI-H2452 (Mesothelioma))	Bliss excess [10]	Bliss excess [11]	Bliss excess [12]	Bliss excess [13]	Bliss excess [14]	Bliss excess [15]
CN(C)CCCOc1ccc(-c2ccc3ncc4c(c3c2)n(C2CCOCC2)c(=O)n4C)cn1 [AZD0156] + C=CCn1c(=O)c2cnc(Nc3ccc(N4CCN(C)CC4)cc3)nc2n1-c1cccc(C(C)(C)O)n1 [AZD1775] (first compound max 1 µM, partner max 1 µM)	0.0198	-0.0006	-0.0647	-0.0155	-0.0003	-0.0428	-0.0268	-0.023	-0.0271	-0.0373	-0.0428	-0.0201	0.0007	-0.0253	-0.0807	-0.0405	-0.0451	-0.0542	-0.0392	0.0044
CN(C)CCCOc1ccc(-c2ccc3ncc4c(c3c2)n(C2CCOCC2)c(=O)n4C)cn1 [AZD0156] + CCN(CCO)CCCOc1ccc2c(Nc3cc(CC(=O)Nc4cccc(F)c4)[nH]n3)ncnc2c1 [AZD2811] (first compound max 1 µM, 7x7, partner max 1 µM)	-0.0742	0.0234	-0.0423	-0.0409	0.0081	-0.0301	0.0066	-0.039	0.09	-0.0213	-0.0079	-0.0219	0.0066	-0.042	0.0219	0.0512	-0.0422	-0.0021	0.0327	0.0147
CN(C)CCCOc1ccc(-c2ccc3ncc4c(c3c2)n(C2CCOCC2)c(=O)n4C)cn1 [AZD0156] + C[C@@H]1COCCN1C2=NC(=NC(=C2)C3(CC3)[S@](=N)(=O)C)C4=C5C=CNC5=NC=C4 [AZD6738] (first compound max 1 µM, 7x7, partner max 10 µM)	-0.0052	-0.0305	-0.0416	0.0042	0.0346	0.0607	-0.0484	0.0031	0.161	-0.0343	-0.0056	-0.0134	-0.021	-0.0547	-0.0472	-0.0192	0.0039	0.0037	-0.0232	0.025
CN(C)CCCOc1ccc(-c2ccc3ncc4c(c3c2)n(C2CCOCC2)c(=O)n4C)cn1 [AZD0156] + O=C(c1cc(Cc2n[nH]c(=O)c3ccccc23)ccc1F)N1CCN(C(=O)C2CC2)CC1 [Olaparib] (first compound max 3 µM, partner max 3 µM)	0.011	0.0648	-0.0189	-0.039	0.0012	0.0703	0.0767	0.0386	0.0264	0.0435	0.0183	-0.0277	0.0234	0.12	0.0068	0.104	0.206	-0.0621	-0.039	-0.0054
C=CCn1c(=O)c2cnc(Nc3ccc(N4CCN(C)CC4)cc3)nc2n1-c1cccc(C(C)(C)O)n1 [AZD1775] + C[C@@H]1COCCN1C2=NC(=NC(=C2)C3(CC3)[S@](=N)(=O)C)C4=C5C=CNC5=NC=C4 [AZD6738] (first compound max 1 µM, partner max 10 µM)	-0.0076	0.0338	-0.0425	-0.0511	-0.0342	0.0091	-0.0482	0.0386	0.0559	0.0257	0.0271	0.0291	-0.0674	-0.0518	0.0123	0.0188	0.0197	0.0167	-0.0282	-0.0523
C=CCn1c(=O)c2cnc(Nc3ccc(N4CCN(C)CC4)cc3)nc2n1-c1cccc(C(C)(C)O)n1 [AZD1775] + O=C(c1cc(Cc2n[nH]c(=O)c3ccccc23)ccc1F)N1CCN(C(=O)C2CC2)CC1 [Olaparib] (first compound max 1 µM, partner max 10 µM)	-0.0189	-0.0326	-0.0611	-0.055	-0.054	-0.0521	-0.0681	-0.0055	-0.0591	-0.0293	-0.0548	0.0211	-0.039	-0.0608	0.107	-0.0192	0.0028	-0.0686	-0.0346	-0.0126
CCN(CCO)CCCOc1ccc2c(Nc3cc(CC(=O)Nc4cccc(F)c4)[nH]n3)ncnc2c1 [AZD2811] + C=CCn1c(=O)c2cnc(Nc3ccc(N4CCN(C)CC4)cc3)nc2n1-c1cccc(C(C)(C)O)n1 [AZD1775] (first compound max 1 µM, partner max 1 µM)	0.0053	-0.031	-0.0442	-0.0258	0.0373	0.0503	0.0516	-0.0176	-0.0233	-0.0339	-0.0052	-0.0181	0.0031	-0.0387	0.192	-0.0523	0.11	0.0258	-0.0238	0.0317
CCN(CCO)CCCOc1ccc2c(Nc3cc(CC(=O)Nc4cccc(F)c4)[nH]n3)ncnc2c1 [AZD2811] + C[C@@H]1COCCN1C2=NC(=NC(=C2)C3(CC3)[S@](=N)(=O)C)C4=C5C=CNC5=NC=C4 [AZD6738] (first compound max 1 µM, 7x7, partner max 10 µM)	-0.0839	-0.1	-0.0291	0.0098	-0.0146	-0.0326	-0.0711	-0.0538	0.0338	-0.0546	0.011	-0.0311	-0.0555	-0.0756	-0.065	0.0023	-0.0369	0.019	0.0391	-0.0548
CCN(CCO)CCCOc1ccc2c(Nc3cc(CC(=O)Nc4cccc(F)c4)[nH]n3)ncnc2c1 [AZD2811] + O=C(c1cc(Cc2n[nH]c(=O)c3ccccc23)ccc1F)N1CCN(C(=O)C2CC2)CC1 [Olaparib] (first compound max 1 µM, 7x7, partner max 10 µM)	-0.0849	-0.0401	-0.0079	-0.0246	0.0024	-0.0066	-0.0266	0.008	0.0422	-0.0171	0.0197	0.0111	-0.0737	-0.0675	0.066	0.0327	0.0475	0.0459	0.111	0.0352
CN(CCO)CC[C@H](CSc1ccccc1)Nc1ccc(S(=O)(=O)NC(=O)c2ccc(N3CCC([C@@H](O)c4ccccc4-c4ccc(Cl)cc4)CC3)cc2)cc1S(=O)(=O)C(F)(F)F [AZD4320] + C1CN(CCC1(C(=O)N[C@@H](CCO)C2=CC=C(C=C2)Cl)N)C3=NC=NC4=C3C=CN4 [Capivasertib] (first compound max 1 µM, 7x7, partner max 3 µM)	-0.0802	-0.0342	-0.0487	-0.0219	-0.0847	0.0298	-0.0412	-0.0593	-0.0265	-0.0637	-0.0785	0.0003	-0.103	-0.0757	0.0075	0.0024	-0.0793	-0.0306	-0.022	-0.0429
CN(CCO)CC[C@H](CSc1ccccc1)Nc1ccc(S(=O)(=O)NC(=O)c2ccc(N3CCC([C@@H](O)c4ccccc4-c4ccc(Cl)cc4)CC3)cc2)cc1S(=O)(=O)C(F)(F)F [AZD4320] + C=CCn1c(=O)c2cnc(Nc3ccc(N4CCN(C)CC4)cc3)nc2n1-c1cccc(C(C)(C)O)n1 [AZD1775] (first compound max 1 µM, partner max 1 µM)	0.0695	0.0386	-0.0232	0.0019	-0.0789	0.0735	0.0392	-0.0296	-0.0535	-0.0543	-0.0262	0.0482	-0.0108	0.0257	0.13	0.0285	-0.0172	0.0385	-0.0383	-0.0299
COc1nnc2ccc(N3CCC(c4ccc(OCCN5CCN(C)C(=O)[C@H]5C)cc4)CC3)nn12 [AZD5153] + CN(CC[C@H](CSC1=CC=CC=C1)NC2=C(C=C(C=C2)S(=O)(=O)NC(=O)C3=CC=C(C=C3)N4CCC(CC4)[C@H](C5=CC=CC=C5C6=CC=C(C=C6)Cl)O)S(=O)(=O)C(F)(F)F)CCO [AZD4320] (first compound max 1 µM, 7x7, partner max 1 µM)	-0.0165		0.0941		0.0382		0.0439	0.0347	-0.0443							0.0211		0.021	-0.0094	0.0211
Cc1c2c(nn1C)CSCc1cc(n(C)n1)CSc1cc(c3ccccc3c1)OCCCc1c(C(=O)O)n(C)c3c-2c(Cl)ccc13 [AZD5991] + C1CN(CCC1(C(=O)N[C@@H](CCO)C2=CC=C(C=C2)Cl)N)C3=NC=NC4=C3C=CN4 [Capivasertib] (first compound max 1 µM, 7x7, partner max 3 µM)	0.0208	0.0256	0.0359	-0.0289	0.047	0.0118	0.0582	0.0198	-0.041	0.0047	-0.0384	0.0331	-0.0028	-0.0146		-0.0148	-0.0316	-0.0533	-0.0833	-0.0249
Cc1c2c(nn1C)CSCc1cc(n(C)n1)CSc1cc(c3ccccc3c1)OCCCc1c(C(=O)O)n(C)c3c-2c(Cl)ccc13 [AZD5991] + CN(C)CCCOc1ccc(-c2ccc3ncc4c(c3c2)n(C2CCOCC2)c(=O)n4C)cn1 [AZD0156] (first compound max 1 µM, 7x7, partner max 1 µM)	0.0058	0.0274	0.0064	-0.0542	-0.0518		-0.0352	0.0222	-0.0028	-0.0201		0.0719	-0.0069	0.0366	-0.0123	-0.0177	-0.0128	0.0172	-0.122	-0.0213
CC(=O)c1c(C)c2cnc(Nc3ccc(N4CCNCC4)cn3)nc2n(C2CCCC2)c1=O [Palbociclib] + CN(CC[C@H](CSC1=CC=CC=C1)NC2=C(C=C(C=C2)S(=O)(=O)NC(=O)C3=CC=C(C=C3)N4CCC(CC4)[C@H](C5=CC=CC=C5C6=CC=C(C=C6)Cl)O)S(=O)(=O)C(F)(F)F)CCO [AZD4320] (first compound max 10 µM, 7x7, partner max 1 µM)	-0.0253		-0.108		-0.0456		-0.0774	-0.0431	-0.014							-0.0308		-0.0407	-0.0407	-0.0853
